Calls of active or inactive are those of the source.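 Rule for the calls: active = a fitted half-maximal concentration EC50 for the rise in nuclear signal no higher than ten times the top dose tested; inconclusive = flat fit with activity between 30% and 70%, or unusable fit; inactive = EC50 beyond ten times the top dose.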

In the assay the target is Hypoxia-inducible factor 1-alpha (Homo sapiens) (UniProt Q16665). Nature of the assay: HIF pathway activation, GFP-HIF1alpha translocation – imaging, fluorescence, U2OS GFP-HIF1alpha, confirmation (AID 434951). To be noted: U2OS GFP-HIF1alpha nuclear intensity, high-content imaging.
Sequence of Hypoxia-inducible factor 1-alpha (Homo sapiens) (Q16665 whole entry, looked up): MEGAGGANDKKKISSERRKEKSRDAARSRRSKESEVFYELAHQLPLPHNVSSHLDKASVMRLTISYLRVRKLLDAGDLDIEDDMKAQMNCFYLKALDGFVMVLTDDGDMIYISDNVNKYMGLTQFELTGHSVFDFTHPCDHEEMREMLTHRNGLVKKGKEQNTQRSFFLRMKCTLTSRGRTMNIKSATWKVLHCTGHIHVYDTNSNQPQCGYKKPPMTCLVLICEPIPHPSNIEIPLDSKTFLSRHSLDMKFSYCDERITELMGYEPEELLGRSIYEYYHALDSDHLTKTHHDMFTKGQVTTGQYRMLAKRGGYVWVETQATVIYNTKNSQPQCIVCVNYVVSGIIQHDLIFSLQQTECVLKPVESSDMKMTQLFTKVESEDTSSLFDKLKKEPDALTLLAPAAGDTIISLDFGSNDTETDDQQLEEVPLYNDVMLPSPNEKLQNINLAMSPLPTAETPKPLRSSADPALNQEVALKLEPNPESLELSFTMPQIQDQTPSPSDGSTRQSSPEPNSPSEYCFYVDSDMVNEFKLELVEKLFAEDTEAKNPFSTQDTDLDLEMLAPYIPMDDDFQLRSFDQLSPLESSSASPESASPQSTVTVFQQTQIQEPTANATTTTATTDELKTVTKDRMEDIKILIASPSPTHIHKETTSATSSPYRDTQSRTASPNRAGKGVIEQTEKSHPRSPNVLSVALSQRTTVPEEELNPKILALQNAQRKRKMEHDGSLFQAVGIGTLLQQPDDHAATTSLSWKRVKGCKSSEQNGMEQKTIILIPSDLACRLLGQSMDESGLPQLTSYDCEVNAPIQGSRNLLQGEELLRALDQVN
`CCCCC(=O)Nc1ccc(NC(=O)CC)cc1OC`: the EC50 was > 35 µM (inactive).
Then `O=C(Nc1cccc(Cl)c1)Nc1cccc(C(=O)O)c1`, with > 35 µM (inactive).
Then `COc1ccccc1/C=C/C(=O)c1ccccc1`, with > 35 µM (inactive).
Then `Cc1cc(C)c(C(=O)N2CCCC(N3CCN(c4cccc(C(F)(F)F)c4)CC3)C2)o1` (stereo not given), with > 35 µM (inactive).
Regarding `COc1ccc(CCNC(=O)CC(NC(=O)c2ccccc2Cl)c2ccccc2)cc1` (stereo not given), the EC50 is > 35 µM (inactive).
Regarding `COc1cccc2sc(N3CCN(C(=O)c4ccc([N+](=O)[O-])o4)CC3)nc12`, the EC50 was > 35 µM (inactive).
`COc1ccc(N2C(=O)[C@@H]3C(c4cccnc4)=NO[C@@H]3C2=O)cc1`: the EC50 is > 35 µM (inactive).
Then `Cc1cc([N+](=O)[O-])nn1Cc1ccc(C(=O)N/N=C/c2ccc(O)cc2O)cc1`, with 22.4 µM.
Then `Cc1ccc2c(c1)C1NC(=S)NC(C)(O2)C1C(=O)Nc1ccc(Cl)cc1` (stereo not given), with > 35 µM (inactive); and `Cc1noc(C(=O)Nc2sc3c(c2C#N)CCC3)c1Cl`, with > 35 µM (inactive).
Regarding `CC(C)(C)NC(=O)CN(Cc1ccc2c(c1)OCO2)C(=O)CNS(=O)(=O)c1ccc(F)cc1`, the EC50 was > 35 µM (inactive).
Then `CCN1CCN(c2ccc([N+](=O)[O-])cc2C=C2C(=O)NC(=O)NC2=O)CC1`, with > 35 µM (inactive).
`CC[n+]1c(S(=O)(=O)[O-])ccc2ccc(C)cc21`: the EC50 was > 35 µM (inactive).
Then `C=CCNC(=S)N/N=C(\C)c1ccccn1`, with 6.53 µM.
On to `Cc1oc(-c2ccc(Cl)cc2)cc1C(=O)/C(C#N)=C/Nc1cccc(OC(F)(F)F)c1`, for which the EC50 is > 35 µM (inactive).
Then `Cc1onc(-c2ccccc2)c1C(=O)Nc1ccc(S(=O)(=O)N2CCCC2)cc1`, with > 35 µM (inactive).
Then `COc1ccc(OC)c2[nH]c(C(=O)N/N=C/c3ccccc3O)cc12`, with 6.61 µM; and `Cn1ncc(Br)c1C(=O)OCC(=O)Nc1nc(-c2ccccc2)cs1`, with > 35 µM (inactive); and `CCOC(=O)c1c(C)[nH]c(C)c1S(=O)(=O)N1c2ccccc2CC1C` (stereo not given), with > 35 µM (inactive).
Then `COc1ccc(NC(=S)c2ccc(N(C)C)cc2)cc1`, with > 35 µM (inactive); and `O=C(Nc1cccc(-c2cn3ccccc3n2)c1)C1CC1`, with > 35 µM (inactive).
As to `Nc1nc(SCC(=O)N2CCCC2)[nH]c(=O)c1-c1ccccc1`, the EC50 is > 35 µM (inactive).
Then `O=C1CN(c2ccccc2)C(=O)N1`, with > 35 µM (inactive); and `Cc1cc(NC(=O)CCCS(=O)(=O)c2nc(-c3cccs3)cc(C(F)(F)F)n2)no1`, with > 35 µM (inactive).
Then `Cc1cccc2[nH]c(CN(C)C(=O)C3CCC(=O)N(C4CC4)C3)nc12` (stereo not given), with > 35 µM (inactive); and `O=[N+]([O-])c1cc(S(=O)(=O)c2ccc(O)c([N+](=O)[O-])c2)ccc1O`, with > 35 µM (inactive).
Then `COc1ccc(C(=O)Nc2ccccc2C(=O)N/N=C/c2ccccn2)cc1OC`, with 10.6 µM; and `CCn1c(N2CCC(Cc3ccccc3)CC2)nc2c1c(=O)[nH]c(=O)n2C`, with > 35 µM (inactive).
On to `COC(=O)C1C(=O)N2CCCSC2=C(C#N)C1c1cccs1` (stereo not given), for which the EC50 is > 35 µM (inactive).
Regarding `CCn1c(SCC(=O)Nc2nncs2)nnc1-c1ccco1`, the EC50 was > 35 µM (inactive).
Then `Cc1ccc2nc(-c3ccccn3)c(Nc3ccccc3C)n2c1`, with 6.13 µM.
Then `COc1ccccc1OCC(=O)N/N=C/c1c(O)ccc2ccccc12`, with 6.2 µM; and `CC1CCN(Cc2nnnn2CCCC(=O)NCCc2cnn(C)c2)CC1`, with > 35 µM (inactive); and `COc1cccc(/C=N/NC(=O)c2ccc([N+](=O)[O-])cc2Cl)c1O`, with > 35 µM (inactive).
Then `COc1cc(C(=O)Nc2sc(C)c(C)c2C(=O)O)cc(OC)c1OC`, with > 35 µM (inactive).
Regarding `CC(C)(C)c1ccc(N2C(=O)CC(C/C=C/c3ccccc3)C2=O)cc1` (stereo not given), the EC50 was > 35 µM (inactive).
Then `COc1ccccc1C(c1nnnn1CC1CCCO1)N1CCC(C(N)=O)CC1` (stereo not given), with > 35 µM (inactive); and `Oc1c(CN2CCN(c3ccccc3)CC2)cc(Br)c2cccnc12`, with 5.65 µM; and `Cc1ccc2nc(SCC(=O)c3ccccc3)nc(=O)n2c1`, with > 35 µM (inactive).
Then `Cc1ccc(C)c(OCC(=O)O/N=C(\N)c2cccc([N+](=O)[O-])c2)c1`, with > 35 µM (inactive); and `Cc1ccc(-c2nc3ccccc3nc2NN)cc1`, with > 35 µM (inactive).
Then `O=C(C1CCCN(Cc2ccccc2F)C1)N1CCc2ccccc2C1` (stereo not given), with > 35 µM (inactive); and `CC1(C)CC(=O)C(CC2C(=O)CC(C)(C)CC2=O)C(=O)C1`, with > 35 µM (inactive); and `CC(=O)NC(c1cccc([N+](=O)[O-])c1)c1ccc2cccnc2c1O` (stereo not given), with 10.7 µM.
As to `S=C(N/N=C/c1cccc2ccccc12)Nc1cccc(Cl)c1`, the EC50 was 31.9 µM.
With `Cc1ccc(S(=O)(=O)N2CCN(c3ccccn3)CC2)cc1`, the EC50 is > 35 µM (inactive).
Then `COC(=O)C1=Nc2ccccc2/C1=C\c1c(O)n(-c2cc(OC)ccc2OC)c(=O)[nH]c1=O`, with > 35 µM (inactive); and `c1ccc(-c2nnc3sc(-c4cc5ccccc5o4)nn23)cc1`, with > 35 µM (inactive).
Then `CCCCn1c(=O)c2c(O)cc(=O)oc2c2ccccc21`, with > 35 µM (inactive).
`CC1(C)Cc2c(C#N)c(SCCC#N)nc(N3CCOCC3)c2CO1`: the EC50 is > 35 µM (inactive).
Then `O=C(CCc1nnc(-c2ccccc2)o1)c1ccc(Cl)cc1`, with > 35 µM (inactive).
Then `O=C(N/N=C/c1cc(Br)ccc1OC(=O)c1ccc(Br)cc1)c1ccncc1`, with > 35 µM (inactive).
On to `Cc1ccc(/C=N\Nc2nc3ccc(Cl)cc3[nH]2)o1`, for which the EC50 is > 35 µM (inactive).
For the molecule `CCOC(=O)C(=CNc1ccc(NC2=NCC(C)S2)cc1)C(=O)OCC` (stereo not given), the EC50 was 8.3 µM.
Then `CCC(=O)NC(c1ccc(Cl)cc1Cl)c1ccc2cccnc2c1O` (stereo not given), with 6.22 µM.
Then `O=C(CSCC(=O)Nc1ccccc1)N/N=C/c1c(O)ccc2ccccc12`, with 4.45 µM; and `Oc1ccc(CCNc2c3ccccc3nc3ccccc23)cc1O`, with > 35 µM (inactive); and `c1ccc(CSC2=NNC(c3ccccn3)S2)cc1` (stereo not given), with 18.6 µM.
Then `CCCC(=O)NC(c1ccc(C)cc1)c1ccc2cccnc2c1O` (stereo not given), with 7.22 µM.
Consider `Cc1onc(-c2ccccc2)c1NC(=O)N(Cc1ccccc1)C(C)C`, for which the EC50 was > 35 µM (inactive).
Regarding `Cc1nnc(-c2ccccc2)nc1N(C)C`, the EC50 was > 35 µM (inactive).
Then `O=C(NCCc1csc(-c2cccc(F)c2)n1)c1ccco1`, with > 35 µM (inactive).
Turning to `Cc1ccc(C)c(SCC(=O)OCC(=O)N2CC(C)OC(C)C2)c1` (stereo not given), the EC50 is > 35 µM (inactive).
Then `O=C(COc1ccc(Cl)cc1Cl)N/N=C/CCc1ccccc1`, with > 35 µM (inactive).
`Brc1ccc(N/N=C(/N=Nc2nn[nH]n2)c2ccccc2)cc1`: the EC50 was 5.73 µM.
Turning to `COc1ccccc1N1CCN(Cc2ccc(O)c3ncccc23)CC1`, the EC50 was 5.41 µM.
Then `CCCCOC(=O)c1ccc(NC(=S)NC(=O)c2c(Br)c(C)nn2C)cc1`, with > 35 µM (inactive); and `O=C1C(=O)c2ccccc2C(O)=C1c1cccc([N+](=O)[O-])c1`, with > 35 µM (inactive).
Then `CCC1CCc2sc(C(=O)NCc3ccccn3)cc2C1` (stereo not given), with > 35 µM (inactive); and `Cc1ccc(C2(C)NC(=O)N(CC(=O)NC(=O)NC(C)(C)C)C2=O)cc1` (stereo not given), with > 35 µM (inactive); and `Cc1ccccc1NC(=O)CN(C)S(=O)(=O)c1ccc(-c2ccc(=O)[nH]n2)s1`, with > 35 µM (inactive).
Consider `Cc1ccc(-c2cc(C(=O)N3CCCCCC3)no2)cc1`, for which the EC50 was > 35 µM (inactive).
Then `N#Cc1ccccc1S(=O)(=O)N1CCN(c2cnccn2)CC1`, with > 35 µM (inactive); and `O=C(NCCCn1ccnc1)c1cc(-c2ccccc2)on1`, with 3.8 µM; and `COC(=O)c1cn(C)c2ccc(S(=O)(=O)N3CCCCC3)cc2c1=O`, with > 35 µM (inactive).
`COc1ccc(OC)c(C2=Nn3c(nnc3-c3cc(C)[nH]n3)SC2)c1`: the EC50 is > 35 µM (inactive).
Then `c1ccc(Cc2nnc(-c3ccccc3)o2)cc1`, with 17.7 µM; and `O=C(CSC1c2ccccc2-c2ccccc21)N/N=C/c1ccccc1O`, with 6.46 µM.
Then `COc1ccc(N/N=C(/N=Nc2nc(C)cc(=O)[nH]2)c2ccccc2)cc1`, with 0.856 µM; and `O=C(c1ccc(OC2CCN(CCc3ccccc3)CC2)cc1)N1CCCC(CCCO)C1` (stereo not given), with > 35 µM (inactive); and `O=C(NC1CCCC1)c1cc(-c2ccccc2)on1`, with 16.3 µM.
Then `CCC(=O)NC(=S)Nc1ccc(NC(=O)c2cccc([N+](=O)[O-])c2C)cc1`, with > 35 µM (inactive); and `CC(C)c1cc(-c2cc(C(=O)NCc3ccccc3)on2)nc(NC2CCCC2)n1`, with > 35 µM (inactive).
On to `O=C(C1=C[C@@H](C2CC2)C[C@@H](OCCCCO)O1)N1CCN(Cc2ccc3c(c2)OCO3)CC1`, for which the EC50 is > 35 µM (inactive).
Then `Oc1ccccc1/C=N/Nc1ncc(Br)cn1`, with 13.4 µM.
Then `O=C(CSc1nc2ccccc2c(=O)n1-c1ccccc1)NC(=O)CN1CCCC1=O`, with > 35 µM (inactive); and `CCCCc1nnc(NC(=O)c2ccc3[nH]c(=O)c(=O)[nH]c3c2)s1`, with > 35 µM (inactive).
On to `Cc1nc2ccccc2n2c(-c3ccccc3)c3c(=O)n(C)c(=O)n(C)c3c12`, for which the EC50 was > 35 µM (inactive).
Then `Cc1ccc(S(=O)(=O)N2CCOC23CCN(C(=O)c2cc(Cl)ccc2Cl)CC3)cc1`, with > 35 µM (inactive).
Consider `COc1ccc(C(=O)CSc2nncn2C)cc1`, for which the EC50 was > 35 µM (inactive).

As a reminder, the EC50 is the concentration that produces a half-maximal response.

These data come from PubChem BioAssay AID434951 (Broad Institute, 2010).
